Assays:
Type in all cases: cell-based, S. cerevisiae
Conditions in all cases: 10 nmol/disk, 30 °C, 48 h
[1] = system: Y2513 ScCYP51 Y140H mutant; assay: Agarose (disk) diffusion assay, strain Y2513
Excerpt: (§1) Final compounds were screened as racemic mixtures using agarose diffusion assays to visualize their inhibitory activity against a panel of recombinant S. cerevisiae strains i.e., S. cerevisiae strains expressing control levels of wild-type CYP51 (ScCYP51), overexpressed wild-type ScCYP51, overexpressed azole-resistant ScCYP51 Y140F/H mutations and overexpressed C. albicans efflux pumps MDR1a or CDR1B (Figure and Table S1).
(§2) The susceptibilities of S. cerevisiae and Candida species strains to azole compounds were observed as zones of growth inhibition in agarose diffusion assays. The disk diffusion assays were carried out as described by Keniya et al. Complete supplement mixture (CSM) agarose (0.6% agarose [wt/vol]; 20 mL of synthetic defined medium (SD); pH 6.8–7) was solidified in a rectangular Petri dish which was overlaid with CSM agarose (0.6% [wt/vol]; 5 mL; pH 6.8–7) seeded with yeast cells at an optical density (OD600) of 0.008 (118,000 cells per 1 mL of overlay). Azole compounds (10 nmol/disk) were applied to sterile BBL paper disks (Becton Dickinson Co., Sparks, MD) and placed on solidified overlays. Cell growth was assessed after incubation at 30 °C for 48 h.

[2] = system: Y525 MFS efflux pump CaMDR1a overexpressed; assay: Agarose (disk) diffusion assay, strain Y525
Excerpt: as §1, §2

[3] = system: Y2301 ScCYP51 Y140F mutant; assay: Agarose (disk) diffusion assay, strain Y2301
Excerpt: as §1, §2

SMILES	zone of growth inhibition (inhibitory activity in words) [1]	zone of growth inhibition (inhibitory activity in words) [2]	zone of growth inhibition (inhibitory activity in words) [3]
O=C(NCc1ccc(-c2ccccc2)cc1)C(Cn1cncn1)c1ccc(F)cc1F (centres unmarked) [Compound 37]	low inhibitory activity	low inhibitory activity	low inhibitory activity
O=C(NCC(O)(Cn1cncn1)c1ccc(F)cc1F)c1cnc2ccccc2c1 (centres unmarked) [Compound 15, N-(2-(2,4-Difluorophenyl)-2-hydroxy-3-(1H-1,2,4-triazol-1-yl)propyl)quinoline-3-carboxamide]	showed activity		showed activity
O=C(NCc1ccc(-c2ccc(OC(F)(F)F)cc2)cc1)C(Cn1cncn1)c1ccc(F)cc1F (centres unmarked) [Compound 40]	low inhibitory activity	low inhibitory activity	low inhibitory activity
O=C(NCc1ccc(-c2ccc(C(F)(F)F)cc2)cc1)C(Cn1cncn1)c1ccc(F)cc1F (centres unmarked) [Compound 39]	lacked inhibitory activity	lacked inhibitory activity	lacked inhibitory activity
O=C(NCc1ccc(-c2ccc(Cl)cc2)cc1)C(Cn1cncn1)c1ccc(F)cc1F (centres unmarked) [Compound 38]	low inhibitory activity	low inhibitory activity	low inhibitory activity

From article PMC12169614, “Exploring Long Arm Amide-Linked Side Chains in the Design of Antifungal Azole Inhibitors of Sterol 14α-Demethylase (CYP51)” (Journal of Medicinal Chemistry, 2025)
